Measured values reported in patent US10167262B2, “Herbicidal substituted 3-arylpyrazoles” (FMC CORPORATION, priority 2014, dated 2019).

How the values were obtained:
Assay in all cases: Test A pre-/postemergence greenhouse herbicide test, visual injury rating 0-100
Format in all cases: in vivo
Settings in all cases: 1000 g ai/ha
[1] = test system: barnyardgrass (Echinochloa crus-galli)
Description: (§1) Seeds of plant species selected from barnyardgrass (Echinochloa crus-galli), large (Lg) crabgrass (Digitaria sanguinalis), giant foxtail (Setaria faberii), morningglory (Ipomoea spp.), pigweed (Amaranthus retroflexus), velvetleaf (Abutilon theophrasti), wheat (Triticum aestivum), and corn (Zea mays) were planted into a blend of loam soil and sand and treated preemergence with a directed soil spray using test chemicals formulated in a non-phytotoxic solvent mixture which included a surfactant. At the same time these species were also treated with postemergence applications of test chemicals formulated in the same manner. Plants ranged in height from 2 to 10 cm and were in the one- to two-leaf stage for the postemergence treatment. Treated plants and untreated controls were maintained in a greenhouse for approximately 10 days, after which time all treated plants were compared to untreated controls and visually evaluated for injury. Plant response ratings, summarized in Table A, are based on a 0 to 100 scale where 0 is no effect and 100 is complete control. A dash (-) response means no test result.

[2] = test system: morningglory (Ipomoea spp.)
Description: as §1

[3] = test system: wheat (Triticum aestivum)
Description: as §1

corn (Zea mays) = test system: corn (Zea mays)
Description: as §1

[4] = test system: giant foxtail (Setaria faberii)
Description: as §1

[5] = test system: large (Lg) crabgrass (Digitaria sanguinalis)
Description: as §1

[6] = test system: pigweed (Amaranthus retroflexus)
Description: as §1

[7] = test system: velvetleaf (Abutilon theophrasti)
Description: as §1

| Compound | Plant response rating (0 to 100 scale), Barnyardgrass ([1]; Postemergence) | Plant response rating (0 to 100 scale), Barnyardgrass ([1]; Preemergence) | Plant response rating (0 to 100 scale), Morningglory ([2]; Postemergence) | Plant response rating (0 to 100 scale), Morningglory ([2]; Preemergence) | Plant response rating (0 to 100 scale), Wheat ([3]; Postemergence) | Plant response rating (0 to 100 scale), Wheat ([3]; Preemergence) | Plant response rating (0 to 100 scale), Corn (corn (Zea mays); Postemergence) | Plant response rating (0 to 100 scale), Corn (corn (Zea mays); Preemergence) | Plant response rating (0 to 100 scale), Foxtail, Giant ([4]; Postemergence) | Plant response rating (0 to 100 scale), Foxtail, Giant ([4]; Preemergence) | Plant response rating (0 to 100 scale), Crabgrass, Large ([5]; Postemergence) | Plant response rating (0 to 100 scale), Crabgrass, Large ([5]; Preemergence) | Plant response rating (0 to 100 scale), Pigweed ([6]; Postemergence) | Plant response rating (0 to 100 scale), Pigweed ([6]; Preemergence) | Plant response rating (0 to 100 scale), Velvetleaf ([7]; Postemergence) | Plant response rating (0 to 100 scale), Velvetleaf ([7]; Preemergence) |
| --- | --- | --- | --- | --- | --- | --- | --- | --- | --- | --- | --- | --- | --- | --- | --- | --- |
| O=C(c1ccccc1)c1cn(CC(F)F)nc1-c1cc(F)cc(Cl)c1 [Compound 40] | 0 | 0 | 0 | 0 | 0 | 0 | 0 | 0 | 0 | 0 | 0 | 0 | 40 | 0 | 0 | 0 |
| ON=C(c1ccccc1)c1c[nH]nc1-c1cc(Br)cc(Br)c1 [Compound 49] | 0 | 0 | 0 | 0 | 0 | 0 | 0 | 0 | 0 | 10 | 0 | 0 | 90 | 80 | 80 | 0 |
| Clc1cc(Cl)cc(-c2n[nH]cc2C(=NN2CCCCC2)c2ccccc2)c1 [Compound 51] | 0 | 0 | 0 | 0 | 0 | 0 | 0 | 0 | 0 | 0 | 0 | 0 | 90 | 100 | 90 | 90 |
| N#CN=C(c1ccccc1)c1c[nH]nc1-c1cc(Cl)cc(Cl)c1 [Compound 52] | 0 | 0 | 0 | 0 | 0 | 0 | 0 | 0 | 0 | 0 | 0 | 0 | 90 | 50 | 100 | 60 |
